Results as given in patent publication US20090298915A1, “TOPICAL DRUG DELIVERY” (priority 2006, published 2009).

Legend:
[1] = system: B16F10 murine melanoma cells; assay: Pigmentation assay in alphaMSH-stimulated B16F10 cells; format: cell-based; settings: B16F10, 48 hours, αMSH 10^−10 M, compound 10^−5 M
Experimental: (§1) S91 Cloudman murine melanoma cells were cultured for 5 days in the presence or absence of αMSH compounds. All experiments were carried out in triplicate wells on three separate occasions. Following culture, cells were washed twice with PBS and then dissociated with cell dissociation solution (Sigma, UK). An aliquot of cells were counted using a haemocytometer, and the remaining cells pelleted by centrifugation prior to lysis of the pellet with 200 μl of 1M NaOH. Melanin concentrations were determined against a standard synthetic melanin dose range using a spectrophometric plate reader (emission 450-492 nm).
B16F10 murine melanoma cells were cultured for 48 hours in the presence or absence of αMSH (10^−10 M) with or without TyrPNA or TyrASO and separately with or without TyrPNA-PPL or TyrASO-PPL. Pigmentation was assessed as described above.

[2] = Ex vivo skin penetration, Franz diffusion chamber, human skin; format: in vitro ADME; settings: fluorescein-labelled compounds, 10^−3 M, up to 3 hours
From the text: (§2) The penetration of the relevant compounds into mouse, pig and human skin was investigated using a Franz diffusion chamber system; this approach ensured a sealed system which prevented any leakage between the upper donor compartment and the lower receptor compartment. Circular full thickness skin samples (6 mm diameter) which had been cut with a punch biopsy blade were mounted into the diffusion chamber, with the stratum corneum facing upwards so that it was exposed to donor compartment, and with the receptor compartment filled with PBS. The compound under investigation was applied to the donor compartment so that it lay on the outer skin surface, and the chamber incubated at room temperature or at 37° C. for up to 3 hours. At the end of this incubation period, the remaining solution was removed from the upper compartment, and the skin washed three times with PBS. The skin was then bisected and half of it was snap frozen in liquid nitrogen for cryosectioning whereas the other half was fixed in 4% paraformaldehyde for 3 hours prior to paraffin blocking for cutting tissue sections. The skin sections were mounted on glass and visualised under fluorescent microscopy.
(§3) Penetration of αMSH into skin was examined using an ex-vivo mouse, pig and human skin model. […]

B16F10 cells = assay: Transport into B16F10 cells, fluorescence and confocal microscopy; format: cell-based, murine; settings: TyrPNA-PPL-fluo at 3×10^−5 M and at 10^−4 M
Experimental: Experiments to investigate the transport of each compound into cells in culture were performed at 3 hours and 24 hours. Cells were seeded (at 1×10^5 cells per well for 3 hours treatment or 5×10^4 cells per well for 24 hours treatment) on 1% (w/v) poly-L-lysine coated glass coverslips in 12 well plates and incubated overnight at 5% CO2 and 37° C.; poly-L-lysine coating of glass coverslips was employed to prevent the fluo-labelled PPL compounds adhering to the glass and causing background fluorescence. Cells were then washed with PBS, and incubated at 5% CO2 and 37° C. with the compound in the medium for 3 hours or 24 hours. The medium was subsequently removed and the cells washed twice with PBS, prior to fixation with 4% paraformaldehyde for 7 minutes, and then fixation was stopped with 50 mM ammonium chloride for 10 minutes. Cells were subsequently washed twice with PBS, and coverslips were mounted (with the cells facing downwards) onto a glass slide with vectashield, and the edges sealed with clear nail varnish to prevent drying. Fluorescence was detected by fluorescence microscopy and/or confocal microscopy. […]
Fluorescently-tagged compounds were used as noted above and intracellular fluorescence recorded as a measure of penetration.

[3] = system: S91 Cloudman murine melanoma cells; assay: Pigmentation assay (melanin synthesis); format: cell-based; settings: 5 days culture, 10^−8 M and 10^−6 M
Experimental: as §1

[4] = Ex vivo skin penetration, Franz diffusion chamber, mouse skin; format: in vitro ADME; settings: fluorescein-labelled compounds, 10^−3 M, up to 3 hours
From the text: as §2, §3

[5] = Ex vivo skin penetration, Franz diffusion chamber, pig skin; format: in vitro ADME; settings: fluorescein-labelled compounds, 10^−3 M, up to 3 hours
From the text: as §2, §3

Row | Substance | darkening of the cell pellet induced by αMSH [1] | penetration into human skin ex vivo [2] | penetration into B16F10 cells (intracellular fluorescence) (B16F10 cells) | melanin synthesis by melanoma cells, potency compared with αMSH [3] | penetration into mouse skin ex vivo [4] | penetration into pig skin ex vivo [5]
1 | TyrPNA: 15 mer antisense peptide nucleic acid (GAA CAT TTT CTC CTT; SEQ. ID no. 1) targeting murine tyrosinase, modified as in FIG. 7 (antisense GAACATTTTCTCCTT; all peptide nucleic acid (PNA); further chemistry not fully specified) [15 mer antisense peptide nucleic acid (GAA CAT TTT CTC CTT; ID no] | did not prevent the increased production of melanin | – | – | – | – | –
2 | TyrPNA-fluo: fluorescein-labelled TyrPNA, FIG. 8 (GAACATTTTCTCCTT; all peptide nucleic acid (PNA); further chemistry not fully specified) | – | did not penetrate into skin | did not penetrate into B16F10 cells | – | – | –
3 | Fluo-Ahx-SYSMEHFRWGKPV-NH2 [Fluo-MSH] | – | did not penetrate into skin | – | stimulated melanin synthesis by melanoma cells with similar potency to αMSH | did not penetrate into skin (except on a single occasion in mouse skin) | did not penetrate into skin
